We go through 24 molecules from US8455475B2 (Gruenenthal GmbH, priority 2009, dated 2013).

As a reminder, the inhibition is the relative decrease from the control value, in per cent.

For this experiment, the target named is T1, rat B1R (bradykinin receptor 1) (Rattus norvegicus, UniProt P97583).
T1 construct: expressed in transfected cells; host or cells: CHO K1 cells
T1 sequence (P97583 1-337): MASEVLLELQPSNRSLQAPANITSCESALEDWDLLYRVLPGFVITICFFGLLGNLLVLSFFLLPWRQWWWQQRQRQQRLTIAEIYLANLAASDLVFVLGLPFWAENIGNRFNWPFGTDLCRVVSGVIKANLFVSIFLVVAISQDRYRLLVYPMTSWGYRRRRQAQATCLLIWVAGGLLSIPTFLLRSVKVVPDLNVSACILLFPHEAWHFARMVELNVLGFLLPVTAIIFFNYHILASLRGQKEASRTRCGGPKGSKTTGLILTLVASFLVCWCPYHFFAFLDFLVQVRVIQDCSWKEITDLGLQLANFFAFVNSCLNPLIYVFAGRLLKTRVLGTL
Description: FLIPR Ca2+ assay (Fluo-4) on CHO K1 cells stably transfected with the B1R gene of the rat (rB1R cells): % inhibition at 10 μM / IC50, agonist Des-Arg9-bradykinin. In kind it is cell-based. Conditions: CHO-K1, rat B1R. The procedure, abridged: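 Using a two-addition FLIPR protocol, compound (10 μM for % values; concentration series for IC50) was preincubated 10–20 min with Fluo-4-loaded B1R-expressing CHO K1 cells before EC80 agonist challenge. Suppression of Ca2+ inflow, read as peak fluorescence, is expressed relative to maximum achievable inhibition; duplicate/triplicate, ≥2 independent experiments.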
In the case of `O=C(NC1CCc2ccc(C(=O)N3CCC4(CCN(Cc5ccc6nccnc6c5)CC4)C3)cc21)c1cc(C(F)(F)F)ccc1Cl` (stereo not drawn) [IND_CC-685, 2-Chloro-N-[6-[8-(quinoxalin-6-yl-methyl)-2,8-diazaspiro[4.5]decane-2-carbonyl]-2,3-dihydro-1H-inden-1-yl]-5-(trifluoromethyl)-benzamide], the inhibition at 10 µM was found to be 68%.

For `Cn1nnc2cc(CN3CCC4(CC3)CCN(C(=O)c3ccc5c(c3)C(NC(=O)c3cc(C(F)(F)F)ccc3Cl)CC5)C4)ccc21` (stereo not drawn) [IND_CC-686, 2-Chloro-N-[6-[8-[(1-methyl-1H-benzotriazol-5-yl)-methyl]-2,8-diazaspiro[4.5]-decane-2-carbonyl]-2,3-dihydro-1H-inden-1-yl]-5-(trifluoromethyl)-benzamide], the inhibition at 10 µM worked out at 69%.

Turning to `CC(C)CN1CCC2(CC1)CCN(C(=O)c1ccc3c(c1)C(NC(=O)c1cc(C(F)(F)F)ccc1Cl)CC3)C2` (stereo not drawn) [IND_CC-687, 2-Chloro-N-[6-[8-(2-methyl-propyl)-2,8-diazaspiro[4.5]decane-2-carbonyl]-2,3-dihydro-1H-inden-1-yl]-5-(trifluoromethyl)-benzamide], the inhibition at 10 µM worked out at 76%.

Take `CCC(CC)CN1CCC2(CC1)CCN(C(=O)c1ccc3c(c1)C(NC(=O)c1cc(C(F)(F)F)ccc1Cl)CC3)C2` (stereo not drawn) [IND_CC-688, 2-Chloro-N-[6-[8-(2-ethyl-butyl)-2,8-diazaspiro[4.5]decane-2-carbonyl]-2,3-dihydro-1H-inden-1-yl]-5-(trifluoromethyl)-benzamide]: the inhibition at 10 µM came out at 88%.

In the case of `O=C(NC1CCc2ccc(C(=O)N3CCC4(CCN(CC5CCCCC5)CC4)C3)cc21)c1cc(C(F)(F)F)ccc1Cl` (stereo not drawn) [IND_CC-689, 2-Chloro-N-[6-[8-(cyclohexyl-methyl)-2,8-diazaspiro[4.5]decane-2-carbonyl]-2,3-dihydro-1H-inden-1-yl]-5-(trifluoromethyl)-benzamide], the inhibition at 10 µM was determined as 55%.

In the case of `O=C(NC1CCc2ccc(C(=O)N3CCC4(CCN(CCc5ccccc5)CC4)C3)cc21)c1cc(C(F)(F)F)ccc1Cl` (stereo not drawn) [IND_CC-690, 2-Chloro-N-[6-(8-phenethyl-2,8-diazaspiro[4.5]decane-2-carbonyl)-2,3-dihydro-1H-inden-1-yl]-5-(trifluoromethyl)-benzamide], the inhibition at 10 µM was 85%.

For `O=C(NC1CCc2ccc(C(=O)N3CCC4(CCN(CCCc5cccc(F)c5)CC4)C3)cc21)c1cc(C(F)(F)F)ccc1Cl` (stereo not drawn) [IND_CC-691, 2-Chloro-N-[6-[8-[3-(3-fluorophenyl)-propyl]-2,8-diazaspiro[4.5]decane-2-carbonyl]-2,3-dihydro-1H-inden-1-yl]-5-(trifluoromethyl)-benzamide], the inhibition at 10 µM turned out to be 95%.

In the case of `O=C(NC1CCc2ccc(C(=O)N3CCC4(CCN(CCCc5ccc(F)cc5)CC4)C3)cc21)c1cc(C(F)(F)F)ccc1Cl` (stereo not drawn) [IND_CC-692, 2-Chloro-N-[6-[8-[3-(4-fluorophenyl)-propyl]-2,8-diazaspiro[4.5]decane-2-carbonyl]-2,3-dihydro-1H-inden-1-yl]-5-(trifluoromethyl)-benzamide], the inhibition at 10 µM was found to be 99%.

Regarding `CCn1cc(CN2CCC3(CC2)CCN(C(=O)c2ccc4c(c2)C(NC(=O)c2cc(C(F)(F)F)ccc2Cl)CC4)CC3)c(C)n1` (stereo not drawn) [IND_CC-693, 2-Chloro-N-[6-[9-[(1-ethyl-3-methyl-1H-pyrazol-4-yl)-methyl]-3,9-diazaspiro[5.5]-undecane-3-carbonyl]-2,3-dihydro-1H-inden-1-yl]-5-(trifluoromethyl)-benzamide], the inhibition at 10 µM is 68%.

Consider `CN(C)c1ncc(CN2CCC3(CC2)CCN(C(=O)c2ccc4c(c2)C(NC(=O)c2cc(C(F)(F)F)ccc2Cl)CC4)CC3)cn1` (stereo not drawn) [IND_CC-694, 2-Chloro-N-[6-[9-[(2-dimethylamino-pyrimidin-5-yl)-methyl]-3,9-diazaspiro[5.5]-undecane-3-carbonyl]-2,3-dihydro-1H-inden-1-yl]-5-(trifluoromethyl)-benzamide], for which the inhibition at 10 µM amounted to 100%.

Turning to `O=C(NC1CCc2ccc(C(=O)N3CCC4(CCN(Cc5ccc6ncccc6c5)CC4)CC3)cc21)c1cc(C(F)(F)F)ccc1Cl` (stereo not drawn) [IND_CC-695, 2-Chloro-N-[6-[9-(quinolin-6-yl-methyl)-3,9-diazaspiro[5.5]undecane-3-carbonyl]-2,3-dihydro-1H-inden-1-yl]-5-(trifluoromethyl)-benzamide], the inhibition at 10 µM stood at 100%.

Regarding `O=C(NC1CCc2ccc(C(=O)N3CCC4(CCN(Cc5ccc6nccnc6c5)CC4)CC3)cc21)c1cc(C(F)(F)F)ccc1Cl` (stereo not drawn) [IND_CC-696, 2-Chloro-N-[6-[9-(quinoxalin-6-yl-methyl)-3,9-diazaspiro[5.5]undecane-3-carbonyl]-2,3-dihydro-1H-inden-1-yl]-5-(trifluoromethyl)-benzamide], the inhibition at 10 µM was found to be 102%.

Consider `CC(C)CN1CCC2(CC1)CCN(C(=O)c1ccc3c(c1)C(NC(=O)c1cc(C(F)(F)F)ccc1Cl)CC3)CC2` (stereo not drawn) [IND_CC-698, 2-Chloro-N-[6-[9-(2-methyl-propyl)-3,9-diazaspiro[5.5]undecane-3-carbonyl]-2,3-dihydro-1H-inden-1-yl]-5-(trifluoromethyl)-benzamide], for which the inhibition at 10 µM is 90%.

Turning to `CCC(CC)CN1CCC2(CC1)CCN(C(=O)c1ccc3c(c1)C(NC(=O)c1cc(C(F)(F)F)ccc1Cl)CC3)CC2` (stereo not drawn) [IND_CC-699, 2-Chloro-N-[6-[9-(2-ethyl-butyl)-3,9-diazaspiro[5.5]undecane-3-carbonyl]-2,3-dihydro-1H-inden-1-yl]-5-(trifluoromethyl)-benzamide], the inhibition at 10 µM was found to be 75%.

In the case of `O=C(NC1CCc2ccc(C(=O)N3CCC4(CCN(CC5CCCCC5)CC4)CC3)cc21)c1cc(C(F)(F)F)ccc1Cl` (stereo not drawn) [IND_CC-700, 2-Chloro-N-[6-[9-(cyclohexyl-methyl)-3,9-diazaspiro[5.5]undecane-3-carbonyl]-2,3-dihydro-1H-inden-1-yl]-5-(trifluoromethyl)-benzamide], the inhibition at 10 µM stood at 64%.

Take `O=C(NC1CCc2ccc(C(=O)N3CCC4(CCN(CCc5ccccc5)CC4)CC3)cc21)c1cc(C(F)(F)F)ccc1Cl` (stereo not drawn) [IND_CC-701, 2-Chloro-N-[6-(9-phenethyl-3,9-diazaspiro[5.5]undecane-3-carbonyl)-2,3-dihydro-1H-inden-1-yl]-5-(trifluoromethyl)-benzamide]: the inhibition at 10 µM came out at 96%.

Consider `O=C(NC1CCc2ccc(C(=O)N3CCC4(CCN(CCCc5cccc(F)c5)CC4)CC3)cc21)c1cc(C(F)(F)F)ccc1Cl` (stereo not drawn) [IND_CC-702, 2-Chloro-N-[6-[9-[3-(3-fluorophenyl)-propyl]-3,9-diazaspiro[5.5]undecane-3-carbonyl]-2,3-dihydro-1H-inden-1-yl]-5-(trifluoromethyl)-benzamide], for which the inhibition at 10 µM came out at 80%.

As for `O=C(NC1CCc2ccc(C(=O)N3CCC4(CCN(CCCc5ccc(F)cc5)CC4)CC3)cc21)c1cc(C(F)(F)F)ccc1Cl` (stereo not drawn) [IND_CC-703, 2-Chloro-N-[6-[9-[3-(4-fluorophenyl)-propyl]-3,9-diazaspiro[5.5]undecane-3-carbonyl]-2,3-dihydro-1H-inden-1-yl]-5-(trifluoromethyl)-benzamide], the inhibition at 10 µM came to 70%.

As for `CCCNC(=O)N1CCC2(CC1)CCN(C(=O)c1ccc3c(c1)C(NC(=O)c1ccccc1Cl)CC3)CC2` (stereo not drawn) [IND_CC-704, 3-[3-[(2-Chloro-benzoyl)amino]-2,3-dihydro-1H-indene-5-carbonyl]-N-propyl-3,9-diazaspiro[5.5]undecane-9-carboxylic acid amide], the inhibition at 10 µM was found to be 91%.

`N#Cc1cccc(NC(=O)N2CCC3(CC2)CCN(C(=O)c2ccc4c(c2)C(NC(=O)c2ccccc2Cl)CC4)CC3)c1` (stereo not drawn) [IND_CC-705, 3-[3-[(2-Chloro-benzoyl)amino]-2,3-dihydro-1H-indene-5-carbonyl]-N-(3-cyano-phenyl)-3,9-diazaspiro[5.5]undecane-9-carboxylic acid amide]: the inhibition at 10 µM was found to be 101%.

In the case of `O=C(NC1CCc2ccc(C(=O)N3CCC4(CCN(C(=O)NCc5ccccc5)CC4)CC3)cc21)c1ccccc1Cl` (stereo not drawn) [IND_CC-706, N-Benzyl-3-[3-[(2-chloro-benzoyl)amino]-2,3-dihydro-1H-indene-5-carbonyl]-3,9-diazaspiro[5.5]undecane-9-carboxylic acid amide], the inhibition at 10 µM came out at 103%.

In the case of `CN(C)c1ccc(NC(=O)N2CCC3(CC2)CCN(C(=O)c2ccc4c(c2)C(NC(=O)c2ccccc2Cl)CC4)CC3)cc1` (stereo not drawn) [IND_CC-707, 3-[3-[(2-Chloro-benzoyl)amino]-2,3-dihydro-1H-indene-5-carbonyl]-N-(4-dimethylaminophenyl)-3,9-diazaspiro[5.5]undecane-9-carboxylic acid amide], the inhibition at 10 µM turned out to be 92%.

With `O=C(NC1CCc2ccc(C(=O)N3CCC4(CCN(C(=O)NC5CCCCC5)CC4)CC3)cc21)c1ccccc1Cl` (stereo not drawn) [IND_CC-708, 3-[3-[(2-Chloro-benzoyl)amino]-2,3-dihydro-1H-indene-5-carbonyl]-N-cyclohexyl-3,9-diazaspiro[5.5]undecane-9-carboxylic acid amide], the inhibition at 10 µM is 99%.

As to `O=C(NC1CCc2ccc(C(=O)N3CCC4(CCN(C(=O)Nc5c(Cl)cccc5Cl)CC4)CC3)cc21)c1ccccc1Cl` (stereo not drawn) [IND_CC-709, 3-[3-[(2-Chloro-benzoyl)amino]-2,3-dihydro-1H-indene-5-carbonyl]-N-(2,6-dichloro-phenyl)-3,9-diazaspiro[5.5]undecane-9-carboxylic acid amide], the inhibition at 10 µM was determined as 91%.
